Measurements from publication PMC11481179, “Development and Application of Reversible and Irreversible Covalent Probes for Human and Mouse Cathepsin‐K Activity Detection, Revealing Nuclear Activity” (Advanced Science, 2024).

Target: T1, CTSK (Homo sapiens, UniProt P43235)
T1 sequence (P43235 115-329): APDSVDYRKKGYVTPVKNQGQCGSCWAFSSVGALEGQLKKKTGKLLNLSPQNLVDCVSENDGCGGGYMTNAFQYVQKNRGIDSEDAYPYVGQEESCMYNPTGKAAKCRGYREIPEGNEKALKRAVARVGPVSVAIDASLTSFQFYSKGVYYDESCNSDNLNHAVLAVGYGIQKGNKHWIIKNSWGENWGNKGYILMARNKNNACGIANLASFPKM
Test: Recombinant cathepsin labeling by ABPs, in-gel fluorescence
Type: binding
Conditions: ABP 5 µM, 1 h, 37 °C, pH 5.5, CTSK 0.5–280 ng
Protocol: The ABPs were tested for binding to recombinant CTSK compared to the closely related CTSB, CTSL, and CTSS, which are highly abundant and active in most biological samples. Using the in‐gel fluorescent analysis that detects the stable enzyme‐probe complex, active CTSK was labeled with each of the four probes, and significant selectivity was found in three probes GD32, GD37, and GD42 (Figure 1a). […] However, the minimum amount of active CTSK the remaining probes detected was much higher, ranging from 8 to 70 ngs, (Figure 1b).
Figure 1 In vitro evaluation of CTSK targeted compounds. a) Labeling of recombinant cathepsins by ABPs. Recombinant cathepsins were treated with increasing concentrations of ABPs for 1 h. Samples were separated by SDS‐PAGE and scanned for fluorescence by a Typhoon scanner at 635/670 nm. All probes show dose‐dependent binding to the CTSK, and have lower affinity to CTSS except GD36, b) CTSK [0.5–280 ng] was labeled with the indicated ABPs [5 µM]. Incubations were performed for 1 h at 37 °C, at pH 5.5. Samples were analyzed as described in (a). c) Recombinant cathepsins B, K, L, and S [0.5 µM] were first treated with the indicated concentrations of the inhibitor GD30 or vehicle for 1 h followed by incubation with a pan cathepsin probe GB123 [1 µM] for 1 h. Samples were analyzed as described in (a). d) Quantitative analysis of CTSK inhibition by GD30 presented in (d), data represent mean values ± standard error, n = 3. e) IC50 plot of GD30 inhibition of CTSK activity. […]
emission wavelengths of 370 and 460 nm, respectively. Cathepsin concentrations in the assay were 0.4 nM (CTSK) or 5 nM (CTSS, CTSB, and CTSL). […] For irreversible inhibitors, reaction data were fitted to the one-phase association formula in GraphPad Prism 9 software: Y=Y0 + (Plateau-Y0)*(1-exp(-K*X)) where in this case Y0 and Y represent fluorescence signal at times 0 and t, respectively, K represent the observed reaction rate kobs and X the inhibitor concentration. […]
reaction was stopped and samples were analyzed as described above. […]

- minimum amount of active CTSK detected: 0.5 ng
Compound: C#CCNC(=O)[C@H](CC(C)C)N[C@@H](c1ccc(-c2ccc(S(=O)(=O)CCNC(=O)CCCCC[N+]3=C(/C=C/C=C/C=C4/N(C)c5ccc(S(=O)(=O)O)cc5C4(C)C)C(C)(C)c4cc(S(=O)(=O)O)ccc43)cc2)cc1)C(F)(F)F [GD32]
